Measured values reported in patent US20240238365A1, “AMYLOID-Beta AGGREGATION INHIBITOR, PHARMACEUTICAL COMPOSITION FOR AMYLOID-Beta AGGREGATION DISEASES, AND USE APPLICATION OF SAME” (O-FORCE CO., LTD., priority 2021, published 2024).
Entries after “also recorded” stand apart in the source; their conditions may differ. Where no end group is shown, it is not given here.

What was measured:
[1] = system: ICR mice to which Aß25-35 had been administered; assay: Y-maze short-term memory test in mice given Aß25-35; format: in vivo
Protocol: The aggregation inhibiting peptide was further administered to mice to which the Aß25-35 had been administered, and then the effects of the aggregation inhibiting peptide was checked.
The Aß25-35 was dissolved in a saline solution to prepare a 3-mmol/L Aß25-35 solution. The Aß25-35 and the YS-11 were dissolved in a saline solution to prepare a mixed solution containing the Aß25-35 at a concentration of 3 mmol/L and the YS-11 at a concentration of 3 mmol/L. The YS-11 was dissolved in a saline solution to prepare a 10-mg/mL YS-11 solution. A saline solution (Saline) was used as a control.
ICR mice (6-week old) were prepared and divided into an Aß25-35 administration group (n=15), a control (Saline) administration group (n=15), a mixed solution administration group (n=6), and a peptide YS administration group (n=7).
The administration schedule was as follows: ventricular administration was performed on Day 1, and nasal administration was performed on Day 14, Day 17, Day 20, and Day 23. A microsyringe was used for the ventricular administration, and a Pipetman was used for the nasal administration. Specifically, the administration was performed on each administration group as follows. […]
Then, on Day 14 and Day 28, the short-term memory was evaluated using a Y-maze. […]

Aß25-35 aggregates [2] = biological target: T1, Aß25-35 aggregates (Homo sapiens, UniProt P05067); assay: Dissociation of Aß25-35 aggregates checked by scanning electron microscope; format: biochemical; settings: pre-formed aggregates; 100 μL of 0.05-mmol/L YS-11 or 1-mmol/L YS-16 solution added, 37° C., 5 days; versus no peptide
Protocol: A reaction solution with the following composition was prepared in a 1.5-mL tube (manufactured by Eppendorf) and incubated at 37° C. for 18 hours to form aggregates of the Aß25-35. Then, 100 μL of a peptide YS solution at a predetermined concentration was added to the reaction solution, and the resultant mixture was further incubated at 37° C. for 5 days. A 0.05-mmol/L YS-11 solution, a 1-mmol/L YS-16 solution, and a 1-mmol/L YS-6 solution were used as the peptide YS solution, and MilliQ water was used instead of the peptide YS solution as a control. After the incubation, centrifugation (12,000 rpm, 10 minutes) was performed to collect a precipitate. The precipitate was treated in the same manner as in Example 1(3) above, and was then observed under a scanning electron microscope. [table]

Aß25-35 [3] = biological target: T2, Aß25-35 (Homo sapiens, UniProt P05067); assay: IC50 of YS peptide against Aß25-35 aggregation (ThT fluorescence); format: biochemical; settings: 37° C., ThT added 2 hours after start of incubation, blank corrected, n=3
Protocol: Reaction solutions with different compositions, namely those with the following compositions (A, B, C, and D), were prepared and dispensed into wells such that the amount of the reaction solution per well was 200 μL. The concentration (X mmol/L) of the peptide YS (YS-11 or YS-16) in the YS solution to be added to the reaction solutions was set to 0.01, 0.05, 0.1, 0.5, and 1 mmol/L. The reaction solutions were incubated at 37° C., and 10 μL of 2-mmol/L ThT (reagent name “Thioflavine T”, manufactured by FUJIFILM Wako Pure Chemical Corporation) was added to each well 2 hours after the start of the incubation. Then, the fluorescence intensity was measured using the measurement device (n=3). The measurement wavelengths were set such that the excitation wavelength (ex) was 444 nm and the fluorescence wavelength (em) was 480 nm. [table] […] In FIG. 2, the vertical axes indicate the fluorescence intensity (unit: FI), and the horizontal axes indicate the concentration of the peptide YS (unit: μmol/L).

Aß25-35 aggregates [4] = biological target: T1, Aß25-35 aggregates; assay: Peptide YS concentration versus ability to dissociate Aß25-35 aggregates (ThT fluorescence); format: biochemical; settings: 37° C.; for ability to dissociate Aß25-35 aggregates: 5 days after aggregate formation
Protocol: First, a reaction solution with the following composition was prepared, was dispensed into wells such that the amount of the reaction solution per well was 200 μL, and was incubated at 37° C. for 18 hours to form aggregates of the Aß25-35 in the reaction solution. 100 μL of an X-mmol/L peptide YS solution (YS-11 or YS-16) was further added to the reaction solution, and the resultant mixture was incubated at 37° C. for 5 days. The concentration (X mmol/L) of the peptide YS in the peptide YS solutions was set to […]. After the incubation, 10 μL of 2-mmol/L ThT was added to each well, and the fluorescence intensity was measured using the measurement device (n=3). The measurement wavelengths were set such that the excitation wavelength (ex) was 444 nm and the fluorescence wavelength (em) was 480 nm. As a control, a reaction solution (Aß25-35) to which water had been added instead of the peptide YS was also measured in the same way. [table]

Aß25-35 [5] = biological target: T2, Aß25-35; assay: Inhibition of Aß25-35 aggregation, thioflavin T (ThT) fluorescence; format: biochemical; settings: 0.1 mM peptide YS, 0.1 mM Aß25-35, 37° C., incubation 4 hours, n=3
Protocol: The peptides YS-11, YS-15, and YS-16 were used as the peptides YS of the examples. Each of the peptides was dissolved in MilliQ water to prepare three types of 1-mg/mL YS solutions.
An Aß-derived fragment peptide was used for aggregation of Aß. Aß25-35, which has high aggregability, was selected as the fragment peptide. The Aß25-35 is a peptide (SEQ ID NO: 7: GSNKGAIIGLM) constituted by 11 amino acid residues consisting of the twenty-fifth to thirty-fifth amino acid residues in the full length sequence of human-derived Aß (SEQ ID NO: 6). The Aß25-35 was dissolved in MilliQ water to prepare a 1-mmol/L Aß25-35 solution.
The fluorescent dye thioflavin T (ThT) binds to aggregates and emits strong fluorescence upon binding, and thus the increase or inhibition of aggregation can be determined by measuring the fluorescence intensity. Thus, the inhibition of aggregation of the Aß25-35 by each peptide YS was checked using ThT.
Specifically, a reaction solution with the following composition was prepared and dispensed into wells such that the amount of the reaction solution per well was 200 μL. After the reaction solution was incubated at 37° C. for a predetermined period of time (0 or 4 hours), 10 μL of 2-mmol/L ThT (reagent name “Thioflavine T”, manufactured by FUJIFILM Wako Pure Chemical Corporation) was added to each well, and the fluorescence intensity was measured using a measurement device (product name “Cytation5”, manufactured by BioTek) (n=3). The measurement wavelengths were set such that the excitation wavelength (ex) was 444 nm and the fluorescence wavelength (em) was 480 nm. As a control, a reaction solution to which water had been added instead of the peptide YS was also measured in the same way.

Aß25-35 [6] = biological target: T2, Aß25-35; assay: Aggregation inhibition checked by scanning electron microscope; format: biochemical; settings: 0.1 mM peptide, 0.1 mM Aß25-35, 37° C., 4 hours, versus no peptide YS
Protocol: A reaction solution with the following composition was prepared in a 1.5-mL tube (manufactured by Eppendorf). After incubating at 37° C. for 4 hours, the reaction solution was centrifuged (12,000 rpm, 10 minutes), and a precipitate was collected. The collected precipitate was washed as follows: 200 μL of MilliQ water was added to the precipitate and the resultant mixture was centrifuged again (12,000 rpm, 10 minutes). This washing treatment was performed three times. Then, 100 μL of a 1% phosphotungstic acid solution was added to the collected precipitate. After the resultant mixture was left to stand for 5 minutes at room temperature, the precipitate was collected through centrifugation (12,000 rpm, 10 minutes), was washed by adding 200 μL of MilliQ water thereto, and was collected through centrifugation (12,000 rpm, 10 minutes). 100 μL of MilliQ water was added to the precipitate, and a suspension was formed using a Vortex mixer. The suspension was added to a glass slide and dried, followed by observation under a scanning electron microscope. [table]

Aß25-35 aggregates [7] = biological target: T1, Aß25-35 aggregates; assay: Ability to dissociate pre-formed Aß25-35 aggregates (ThT fluorescence); format: biochemical; settings: aggregates formed 18 hours at 37° C., then 100 μL of 1-mmol/L peptide added, 5 days
Protocol: First, a reaction solution with the following composition was prepared and incubated at 37° C. for 18 hours to form aggregates of the Aß25-35 in the reaction solution. 100 μL of a 1-mmol/L peptide YS (YS-5 or YS-16) was further added to the reaction solution, and the resultant mixture was incubated at 37° C. for 5 days. After the incubation, the reaction solution was dispensed into wells such that the amount of the reaction solution per well was 200 μL. Furthermore, 10 μL of 2-mmol/L ThT was added to each well, and the fluorescence intensity was measured using the measurement device (n=3). The measurement wavelengths were set such that the excitation wavelength (ex) was 444 nm and the fluorescence wavelength (em) was 480 nm. As a control, a reaction solution to which water had been added instead of the peptide YS was also measured in the same way. [table]

| Sequence | alternation rate in Y-maze ([1]; Day 14, ventricular coadministration on Day 1 of 9 nmol Aß25-35 and 9 nmol YS-11 (mixed solution), n=6) | alternation rate in Y-maze ([1]; Day 28, Aß25-35 ventricular on Day 1, then YS-11 nasal 74 nmol on Day 14, 17, 20, 23, n=7) | amount of fibrous aggregates under scanning electron microscope (Aß25-35 aggregates [2]) | IC50 (Aß25-35 [3]) | ability to dissociate Aß25-35 aggregates (Aß25-35 aggregates [4]; final concentration range of 0.005 to 0.1 mmol/L) | fluorescence intensity compared with the control (Aß25-35 without peptide YS) (Aß25-35 [5]) | fibrous material / formation of aggregates under scanning electron microscope (Aß25-35 [6]) | control aggregates dissociated (Aß25-35 aggregates [7]) | fluorescence intensity relative to the control (Aß25-35) (Aß25-35 aggregates [7]) | aggregates dissociated (control Aß25-35 aggregates taken as 100%) (Aß25-35 aggregates [4]; final concentration of 0.1 mmol/L, 5 days) | ability to dissociate Aß25-35 aggregates (Aß25-35 aggregates [4]; final concentration range of 0.01 to 0.1 mmol/L) |
| --- | --- | --- | --- | --- | --- | --- | --- | --- | --- | --- | --- |
| RETLVYLTHLD [YS-11, RETLVYLTHLD] | as high as that of the control group | as high as that of the control group | a further decrease in the amount of fibrous aggregates | 3.6 µM | excellent dissociating ability | significantly lower; also recorded: considerably lower | decreased very significantly | – | – | – | – |
| RETLVYLTHLDYDDTE [YS-16, RETLVYLTHLDYDDTE] | – | – | a decrease in the amount of fibrous aggregates | 0.6 µM | – | significantly lower; also recorded: considerably lower | substantially no fibrous material was observed | 50% | 50% | 48% | excellent dissociating ability in a concentration-dependent manner |
| YKNMRETLVYLTHLD (aggregation inhibitor peptide) [YS-15] | – | – | – | – | – | significantly lower | – | – | – | – | – |
